Consider 20 molecules from PubChem BioAssay (NCI).

Holding throughout (experiment): NCI-60 cell line screen, 48 h
For experiment [1], the system named is A549 NSCLC.
In experiment [2] the test system is COLO 205 colon.
Experiment [3] concerns HCC-2998 colon.
Experiment [4] deals with HL-60(TB) leukemia.
For experiment [5], the system named is HOP-62 NSCLC.
In experiment [6] the test system is HOP-92 NSCLC.
Experiment [7] relates to HT29 colon.
The subject of experiment [8] is KM12 colon.
Experiment [9] concerns MCF7 breast.
Experiment [10] deals with NCI/ADR-RES ovarian.
Experiment [11] concerns OVCAR-3 ovarian.
Experiment [12] has as its system RPMI-8226 leukemia.
Experiment [13] relates to SF-295 CNS.
Experiment [14] has as its system SK-MEL-5 melanoma.
The test system of experiment [15] is SNB-19 CNS.
In experiment [16] the test system is U251 CNS.

The structures appear in SMILES notation.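 Five compound concentrations were applied to cells in 96-well plates for 48 hours; endpoints were derived by simple linear interpolation of the resulting dose-response curve. At the GI50, growth is halved. Definition used: TGI = concentration required for complete inhibition of growth.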 Some results are limits rather than exact numbers.

On to `CC(C)/C(Cl)=N\OC(=O)Nc1ccc(F)cc1F`, for which the TGI in [1] was determined as 34.6 µM; in experiment [2] it was 3.52 µM; in experiment [3] it was 34 µM; in experiment [4] it was 0.626 µM; in experiment [5] it was 31.8 µM; in experiment [6] it was 3.61 µM. For the same molecule, the TGI in experiment [7] amounted to 15.8 µM; in [8], 35.1 µM; in [9] it was 13.4 µM; in [10], 21.2 µM; in experiment [11] it was 6.69 µM; in [12], 75.2 µM. For the same molecule, the TGI in experiment [13] came out at 28.3 µM; in experiment [14] it was 27.4 µM; in experiment [15] it was 34.8 µM; in [16], 32.8 µM.
Turning to `CC(=O)N1N(c2ccc([N+](=O)[O-])cc2)C(=O)C1(C)C`, the TGI in [2] worked out at 30.5 µM; in experiment [3], 29.7 µM; in [5] it was 40.4 µM; in experiment [7], 44.8 µM; in [8] it was 35.4 µM; in experiment [9], 42.5 µM. Besides, the TGI in [10] was 89.9 µM; in experiment [11], 40.5 µM; in experiment [13], above 100 µM; in experiment [14], 30.8 µM; in experiment [15] it was above 100 µM; in [16], 52.8 µM.
Regarding `Nc1ncnc2c1cnn2Cc1cn(COCC(O)CO)nn1` (stereo not given), the TGI in experiment [1], in experiment [2], in [3], in experiment [4], in experiment [5] and in experiment [6] was above 100 µM in each case. For the same molecule, the TGI in [7], in experiment [8], in [9], in experiment [10], in experiment [11] and in experiment [13] was above 100 µM each time. Moreover, the TGI in experiment [14], in experiment [15] and in [16] was above 100 µM each time.
`C[n+]1cccc2ccc(OC(=O)c3ccccc3)cc21`: the TGI in experiment [1], in experiment [2], in experiment [5], in experiment [6], in experiment [7] and in experiment [8] was above 100 µM in each case. The TGI in experiment [9], in experiment [10], in experiment [11], in experiment [12], in experiment [13] and in [14] was above 100 µM each time. The TGI in experiment [15] was above 100 µM.
Consider `Cc1ccc(-c2c(C#N)c(N)nc3c2CCS(=O)(=O)c2ccccc2-3)cc1`, for which the TGI in experiment [1], in experiment [2], in [3], in experiment [6], in experiment [7] and in [8] was above 100 µM throughout. In addition, the TGI in experiment [10], in [12], in experiment [14], in [15] and in experiment [16] was above 100 µM each time.
With `O=C1CC(C(=O)N2CCCCC2)n2c(=O)n(-c3ccccc3)c(=O)n2C1` (stereo not given), the TGI in experiment [1], in experiment [2], in [3], in experiment [5], in experiment [7] and in experiment [8] was above 100 µM throughout. The TGI in [9], in [10], in experiment [11], in experiment [13], in experiment [14] and in experiment [15] was above 100 µM each time.
With `CC(C)CCc1n[nH]c(=O)n1/N=C\c1ccccc1`, the TGI in experiment [1], in [2], in experiment [3], in experiment [5], in [6] and in experiment [7] was above 100 µM in each case. The TGI in experiment [8], in [10], in experiment [11], in experiment [13], in experiment [14] and in [15] was above 100 µM each time. In addition, the TGI in experiment [16] was above 100 µM.
With `CC(C)(CO)NC(=O)Nc1c(C(F)(F)F)cc(-c2ccccc2)[nH]c1=O`, the TGI in [1], in [2], in [3], in [5], in experiment [6] and in experiment [7] was above 100 µM each time. The TGI in experiment [8], in experiment [9], in experiment [10], in experiment [11], in experiment [13] and in experiment [14] was above 100 µM throughout. The TGI in experiment [15] and in experiment [16] was above 100 µM throughout.
`CCOc1cc2c(cc1O)/C(=N/NS(=O)(=O)c1ccc(C)cc1)C[C@@H]1[C@@H]2CC[C@]2(C)[C@@H](O)CC[C@@H]12`: the TGI was above 100 µM in experiment [1]; 17.4 µM in experiment [2]; 15.1 µM in experiment [3]; above 100 µM in [5]; above 100 µM in experiment [6]; above 100 µM in experiment [7]. Moreover, the TGI in experiment [8] is above 100 µM; in [9], above 100 µM; in experiment [10] it was above 100 µM; in experiment [11] it was above 100 µM; in experiment [12], 16 µM; in experiment [13] it was above 100 µM. Further, the TGI in experiment [14], in experiment [15] and in experiment [16] was above 100 µM throughout. Moreover, the GI50 is 5.14 µM in experiment [5] and 3.18 µM in experiment [11].
In the case of `Cc1ccc(S(=O)(=O)NNC2(NS(=O)(=O)c3ccc(Cl)cc3)C(Cl)=C(Cl)C(=O)c3ccccc32)cc1` (stereo not given), the TGI in experiment [1] was determined as 34.2 µM; in experiment [2] it was 34.9 µM; in experiment [3] it was 33.2 µM; in experiment [4], 37.4 µM; in experiment [5] it was 54.8 µM; in [6], 41.6 µM. Further, the TGI in experiment [7] was 35.1 µM; in experiment [8] it was 35.2 µM; in [9] it was 37.3 µM; in experiment [10], 89.8 µM; in [11] it was 42.1 µM; in experiment [12] it was 67 µM. In addition, the TGI in [13] worked out at 51.4 µM; in [14] it was 28.7 µM; in experiment [15] it was 29.8 µM; in experiment [16], 57.3 µM.
As to `Clc1nc(NCCc2ccccc2)c2ncn(-c3ccccc3)c2n1`, the TGI in experiment [1] is above 100 µM; in experiment [2], 50.6 µM; in experiment [3] it was 45.5 µM; in experiment [5], 67.2 µM; in experiment [7], 34.2 µM; in experiment [8] it was 51.3 µM. Moreover, the TGI in experiment [9] was 60.8 µM; in experiment [10] it was 57.9 µM; in experiment [11], 82.2 µM; in experiment [12], 47.3 µM; in [13], above 100 µM; in experiment [14] it was 32.5 µM. The TGI in experiment [15] is above 100 µM; in experiment [16] it was 48.6 µM.
For `CC1(C)OC(=O)C2(O1)C(=O)C1CCCCC12` (stereo not given), the TGI in experiment [1], in experiment [2], in experiment [3], in [5], in experiment [7] and in [8] was above 100 µM throughout. Further, the TGI in experiment [9], in [10], in experiment [11], in experiment [12], in experiment [13] and in experiment [14] was above 100 µM in each case. The TGI in experiment [15] and in experiment [16] was above 100 µM in each case.
As to `COC(=O)C1(Cc2ccc3c(c2)CCC3)Cc2ccc3c(c2C1)CCC3` (stereo not given), the TGI in experiment [1] was above 100 µM; in experiment [2] it was 39.2 µM; in experiment [3], above 100 µM; in [4] it was above 100 µM; in [5], above 100 µM; in experiment [6], 98.1 µM. In addition, the TGI in [7] was 33.9 µM; in [8], 54 µM; in [9], 31.4 µM; in experiment [10], 72.8 µM; in [11], 60.1 µM; in [12], 46.9 µM. In addition, the TGI in experiment [13] was determined as 60.7 µM; in [14], 40.2 µM; in experiment [16], 37.1 µM.
For `O=c1oc(-c2ccccc2)c(-c2ccccc2)n1-c1ccc(Br)cc1`, the TGI in experiment [1], in [2], in experiment [4], in [5], in [6] and in [7] was above 100 µM each time. The TGI in [8], in experiment [9], in experiment [11], in experiment [13], in experiment [14] and in experiment [15] was above 100 µM each time. In addition, in experiment [16], the TGI was above 100 µM.
Regarding `C/C(=N\NC(=S)NC(C)(C)C)c1ccccn1`, the TGI was above 38.4 µM in experiment [1]; above 100 µM in experiment [2]; above 100 µM in experiment [3]; above 100 µM in experiment [5]; 9.47 µM in experiment [6]; above 76.6 µM in [7]. The TGI in experiment [8] is above 100 µM; in [9], above 100 µM; in experiment [10], above 39.7 µM; in experiment [11], above 100 µM; in experiment [12], 3.72 µM; in experiment [13], above 100 µM. Besides, the values for the TGI in experiment [14], in experiment [15] and in [16] were above 40 µM, above 100 µM and above 85.9 µM, respectively.
On to `CCOC(=O)C1(C/C=C\CBr)CCCCCCCCCCC1=O` (stereo not given), for which the TGI in [1] was above 53 µM; in experiment [2], 33.7 µM; in [3], 30.2 µM; in [5], 34.7 µM; in experiment [7], 34.3 µM; in experiment [8], 28.8 µM. The TGI in experiment [9] turned out to be 42.3 µM; in experiment [10], 39.2 µM; in experiment [11], 9.75 µM; in experiment [12] it was 9.02 µM; in [13], 31.7 µM; in experiment [14], 26.5 µM. Also, the TGI in experiment [15] came to 36.6 µM; in [16], 26.1 µM.
Regarding `O=C1[C@@H]2C[C@@H](O)CN2C(=O)c2ccccc2N1CCCO`, the TGI in experiment [1], in experiment [5], in experiment [6], in experiment [7], in [8] and in experiment [9] was above 100 µM throughout. The TGI in experiment [10], in experiment [11], in [12], in experiment [13], in experiment [15] and in experiment [16] was above 100 µM in each case.
Consider `COc1ccc(C(=O)N(C(=S)OCCOc2ccccc2)c2ccccc2)cc1`, for which the TGI in experiment [1] is above 100 µM; in [2], above 100 µM; in [3], above 100 µM; in experiment [4], 51.9 µM; in experiment [5] it was above 100 µM; in experiment [6] it was 70.4 µM. The TGI in experiment [7] was above 100 µM; in [8], above 100 µM; in experiment [9], above 100 µM; in experiment [10], above 100 µM; in [11] it was above 100 µM; in experiment [12], 37.9 µM. Moreover, the TGI in [13], in [15] and in [16] was above 100 µM throughout.
Regarding `C=CCCCC1CCCNC1=S` (stereo not given), the TGI in experiment [1], in experiment [3], in [5], in experiment [6], in [7] and in experiment [8] was above 100 µM in each case. Also, the TGI in experiment [9], in experiment [11], in [12], in experiment [13], in experiment [14] and in experiment [15] was above 100 µM in each case. In experiment [16], this molecule showed a TGI above 100 µM.
As for `CC(=O)N(CN1C(=O)CCC1C(=O)O)c1cccc(O)c1` (stereo not given), the TGI in experiment [1], in [2], in experiment [3], in experiment [4], in experiment [5] and in [6] was above 100 µM throughout. Besides, the TGI in [7], in [8], in [9], in [10], in experiment [11] and in experiment [12] was above 100 µM each time. Besides, the TGI in experiment [13], in experiment [14], in [15] and in [16] was above 100 µM in each case.
